# Assay results from paper PMC8636635 (Communications Biology, 2021).
# Columns and labels:
# [1] = biological target: SARS-CoV-2 Protein E (Severe acute respiratory syndrome coronavirus 2, UniProt P0DTC4); assay: two-electrode voltage clamp, X. laevis oocytes; details: read-out: % block at 10 μM
# [2] = biological target: T1, ORF7b (Severe acute respiratory syndrome coronavirus 2, UniProt P0DTD8)
# T1 construct: gene 7b
# [3] = biological target: SARS-CoV-1 Protein E (Severe acute respiratory syndrome-related coronavirus, UniProt P59637); type: cell-based
# Sequence of SARS-CoV-1 Protein E (P59637 whole entry, looked up): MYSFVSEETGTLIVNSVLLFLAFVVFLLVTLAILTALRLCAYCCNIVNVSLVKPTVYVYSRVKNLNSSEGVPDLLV
# Sequence of SARS-CoV-2 Protein E (P0DTC4 whole entry): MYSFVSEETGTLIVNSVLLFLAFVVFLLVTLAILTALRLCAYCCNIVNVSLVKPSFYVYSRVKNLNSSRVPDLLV
# T1 sequence (P0DTD8 whole entry): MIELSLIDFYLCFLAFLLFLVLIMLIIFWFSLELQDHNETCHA
SMILES,inhibition at 10 µM [1] [%],% reduction in current at 10 μM [2] [%],% block [3]
c1ccc2c(c1)Cc1ccccc1O2 [xanthene],80,47,–
Cc1cc(O)c2c(c1)C(=O)c1cc(O)cc(O)c1C2=O [emodin],60,79,HMA and emodin blocked the Protein E ion channels from both SARS-CoV-1 and -2
N=C(N)NC(=O)c1nc(Cl)c(N2CCCCCC2)nc1N [hexamethylene-amiloride],50,–,HMA and emodin blocked the Protein E ion channels from both SARS-CoV-1 and -2
C1C2CC3CC1CC(C2)C3 [adamantane],–,–,"adamantane that also blocked Protein E from SARS-CoV-1, but not that of SARS-CoV-2"
NC12CC3CC(CC(C3)C1)C2 [amantadine],77,–,–
